From the NIST ThermoML archive (doi:10.1016/j.jct.2017.04.009)

Assay: xn = mol fraction of the nth substance listed
Settings: Liquid, pressure decay method

Structure (SMILES): CCCCCCn1cc[n+](C)c1.O=S(=O)([O-])C(F)(F)F [1-hexyl-3-methylimidazolium trifluoromethanesulfonate] + CC(F)F
- binary diffusion coefficient (303.2 K, 86.8 kPa, x2 = 0): 1.48e-10 m2/s
- binary diffusion coefficient (313.2 K, 95.7 kPa, x2 = 0): 2.13e-10 m2/s
- binary diffusion coefficient (323.2 K, 98 kPa, x2 = 0): 2.82e-10 m2/s
- binary diffusion coefficient (333.2 K, 101.9 kPa, x2 = 0): 3.79e-10 m2/s
- binary diffusion coefficient (343.2 K, 99.1 kPa, x2 = 0): 4.73e-10 m2/s

Structure (SMILES): CCF [fluoroethane] + CCCCCCn1cc[n+](C)c1.F[B-](F)(F)F
- binary diffusion coefficient (303.2 K, 101 kPa, x1 = 0): 1.23e-10 m2/s
- binary diffusion coefficient (313.2 K, 97.7 kPa, x1 = 0): 1.91e-10 m2/s
- binary diffusion coefficient (323.2 K, 104.5 kPa, x1 = 0): 2.54e-10 m2/s
- binary diffusion coefficient (333.2 K, 102.4 kPa, x1 = 0): 3.36e-10 m2/s
- binary diffusion coefficient (343.2 K, 101.6 kPa, x1 = 0): 4.2e-10 m2/s

Structure (SMILES): CC(F)(F)F [1,1,1-trifluoroethane] + CCCCCCn1cc[n+](C)c1.F[B-](F)(F)F
- binary diffusion coefficient (303.2 K, 149.1 kPa, x1 = 0): 7.7e-11 m2/s
- binary diffusion coefficient (313.2 K, 159.2 kPa, x1 = 0): 1.15e-10 m2/s
- binary diffusion coefficient (323.2 K, 173.5 kPa, x1 = 0): 1.89e-10 m2/s
- binary diffusion coefficient (333.2 K, 187.6 kPa, x1 = 0): 2.62e-10 m2/s
- binary diffusion coefficient (343.2 K, 189 kPa, x1 = 0): 3.39e-10 m2/s

Structure (SMILES): CCCCCCn1cc[n+](C)c1.O=S(=O)([O-])C(F)(F)F [1-hexyl-3-methylimidazolium trifluoromethanesulfonate] + CC(F)(F)F
- binary diffusion coefficient (303.2 K, 97.3 kPa, x2 = 0): 1.96e-10 m2/s
- binary diffusion coefficient (313.2 K, 110.5 kPa, x2 = 0): 2.61e-10 m2/s
- binary diffusion coefficient (323.2 K, 105.4 kPa, x2 = 0): 3.48e-10 m2/s
- binary diffusion coefficient (333.2 K, 108.8 kPa, x2 = 0): 4.58e-10 m2/s
- binary diffusion coefficient (343.2 K, 106.3 kPa, x2 = 0): 6.13e-10 m2/s

Structure (SMILES): C=C(F)C(F)(F)F [2,3,3,3-tetrafluoro-1-propene] + CCCCCCn1cc[n+](C)c1.F[B-](F)(F)F
- binary diffusion coefficient (303.2 K, 158.3 kPa, x1 = 0): 6.9e-11 m2/s
- binary diffusion coefficient (313.2 K, 168.4 kPa, x1 = 0): 1.02e-10 m2/s
- binary diffusion coefficient (323.2 K, 170 kPa, x1 = 0): 1.59e-10 m2/s
- binary diffusion coefficient (333.2 K, 185.3 kPa, x1 = 0): 2.47e-10 m2/s
- binary diffusion coefficient (343.2 K, 189 kPa, x1 = 0): 3.59e-10 m2/s

Structure (SMILES): CC(F)(F)F [1,1,1-trifluoroethane] + CCCCCC[n+]1ccn(C)c1.O=S(=O)([N-]S(=O)(=O)C(F)(F)F)C(F)(F)F
- binary diffusion coefficient (303.2 K, 104 kPa, x1 = 0): 1.84e-10 m2/s
- binary diffusion coefficient (313.2 K, 98.7 kPa, x1 = 0): 2.4e-10 m2/s
- binary diffusion coefficient (323.2 K, 99.5 kPa, x1 = 0): 3.35e-10 m2/s
- binary diffusion coefficient (333.2 K, 102.6 kPa, x1 = 0): 3.97e-10 m2/s
- binary diffusion coefficient (343.2 K, 99.7 kPa, x1 = 0): 5.1e-10 m2/s

Structure (SMILES): FC(F)C(F)(F)F [pentafluoroethane] + CCCCCC[n+]1ccn(C)c1.O=S(=O)([N-]S(=O)(=O)C(F)(F)F)C(F)(F)F
- binary diffusion coefficient (303.2 K, 93.2 kPa, x1 = 0): 1.02e-10 m2/s
- binary diffusion coefficient (313.2 K, 94.5 kPa, x1 = 0): 1.48e-10 m2/s
- binary diffusion coefficient (323.2 K, 95.6 kPa, x1 = 0): 2.24e-10 m2/s
- binary diffusion coefficient (333.2 K, 95.7 kPa, x1 = 0): 3.13e-10 m2/s
- binary diffusion coefficient (343.2 K, 100.2 kPa, x1 = 0): 4.21e-10 m2/s

Structure (SMILES): CCCCCCn1cc[n+](C)c1.O=S(=O)([O-])C(F)(F)F [1-hexyl-3-methylimidazolium trifluoromethanesulfonate] + FC(F)C(F)(F)F
- binary diffusion coefficient (303.2 K, 97.2 kPa, x2 = 0): 2.38e-10 m2/s
- binary diffusion coefficient (313.2 K, 98.5 kPa, x2 = 0): 3.05e-10 m2/s
- binary diffusion coefficient (323.2 K, 99.1 kPa, x2 = 0): 4.17e-10 m2/s
- binary diffusion coefficient (333.2 K, 100.9 kPa, x2 = 0): 5.25e-10 m2/s
- binary diffusion coefficient (343.2 K, 103.8 kPa, x2 = 0): 6.19e-10 m2/s

Structure (SMILES): FC(F)C(F)(F)F [pentafluoroethane] + CCCCCCn1cc[n+](C)c1.F[B-](F)(F)F
- binary diffusion coefficient (303.2 K, 151.8 kPa, x1 = 0): 6.3e-11 m2/s
- binary diffusion coefficient (313.2 K, 164 kPa, x1 = 0): 1.24e-10 m2/s
- binary diffusion coefficient (323.2 K, 169.7 kPa, x1 = 0): 2.16e-10 m2/s
- binary diffusion coefficient (333.2 K, 176.2 kPa, x1 = 0): 2.95e-10 m2/s
- binary diffusion coefficient (343.2 K, 172.3 kPa, x1 = 0): 3.66e-10 m2/s

Structure (SMILES): CCCCCCn1cc[n+](C)c1.O=S(=O)([O-])C(F)(F)F [1-hexyl-3-methylimidazolium trifluoromethanesulfonate] + FCF
- binary diffusion coefficient (303.2 K, 98.2 kPa, x2 = 0): 3.01e-10 m2/s
- binary diffusion coefficient (313.2 K, 102 kPa, x2 = 0): 4.27e-10 m2/s
- binary diffusion coefficient (323.2 K, 99.3 kPa, x2 = 0): 5.35e-10 m2/s
- binary diffusion coefficient (333.2 K, 100.2 kPa, x2 = 0): 6.82e-10 m2/s
- binary diffusion coefficient (343.2 K, 100.4 kPa, x2 = 0): 8.35e-10 m2/s

Structure (SMILES): FCF [difluoromethane] + CCCCCC[n+]1ccn(C)c1.O=S(=O)([N-]S(=O)(=O)C(F)(F)F)C(F)(F)F
- binary diffusion coefficient (303.2 K, 92.8 kPa, x1 = 0): 1.55e-10 m2/s
- binary diffusion coefficient (313.2 K, 93.9 kPa, x1 = 0): 2.15e-10 m2/s
- binary diffusion coefficient (323.2 K, 94.4 kPa, x1 = 0): 2.77e-10 m2/s
- binary diffusion coefficient (333.2 K, 94.3 kPa, x1 = 0): 3.68e-10 m2/s
- binary diffusion coefficient (343.2 K, 95.2 kPa, x1 = 0): 4.78e-10 m2/s

Structure (SMILES): CC(F)F [1,1-difluoroethane] + CCCCCC[n+]1ccn(C)c1.O=S(=O)([N-]S(=O)(=O)C(F)(F)F)C(F)(F)F
- binary diffusion coefficient (303.2 K, 87.7 kPa, x1 = 0): 9.9e-11 m2/s
- binary diffusion coefficient (313.2 K, 89.1 kPa, x1 = 0): 1.41e-10 m2/s
- binary diffusion coefficient (323.2 K, 92.5 kPa, x1 = 0): 2.02e-10 m2/s
- binary diffusion coefficient (333.2 K, 96.4 kPa, x1 = 0): 2.61e-10 m2/s
- binary diffusion coefficient (343.2 K, 93.8 kPa, x1 = 0): 3.16e-10 m2/s

Structure (SMILES): CCF [fluoroethane] + CCCCCC[n+]1ccn(C)c1.O=S(=O)([N-]S(=O)(=O)C(F)(F)F)C(F)(F)F
- binary diffusion coefficient (303.2 K, 90.2 kPa, x1 = 0): 1.28e-10 m2/s
- binary diffusion coefficient (313.2 K, 91.1 kPa, x1 = 0): 2.08e-10 m2/s
- binary diffusion coefficient (323.2 K, 93.4 kPa, x1 = 0): 2.96e-10 m2/s
- binary diffusion coefficient (333.2 K, 93 kPa, x1 = 0): 3.46e-10 m2/s
- binary diffusion coefficient (343.2 K, 92.5 kPa, x1 = 0): 4.13e-10 m2/s

Structure (SMILES): CCCCCCn1cc[n+](C)c1.O=S(=O)([O-])C(F)(F)F [1-hexyl-3-methylimidazolium trifluoromethanesulfonate] + C=C(F)C(F)(F)F
- binary diffusion coefficient (303.2 K, 104.3 kPa, x2 = 0): 1.46e-10 m2/s
- binary diffusion coefficient (313.2 K, 101.6 kPa, x2 = 0): 2e-10 m2/s
- binary diffusion coefficient (323.2 K, 106.7 kPa, x2 = 0): 2.66e-10 m2/s
- binary diffusion coefficient (333.2 K, 100.8 kPa, x2 = 0): 3.76e-10 m2/s
- binary diffusion coefficient (343.2 K, 109 kPa, x2 = 0): 4.97e-10 m2/s

Structure (SMILES): C=C(F)C(F)(F)F [2,3,3,3-tetrafluoro-1-propene] + CCCCCC[n+]1ccn(C)c1.O=S(=O)([N-]S(=O)(=O)C(F)(F)F)C(F)(F)F
- binary diffusion coefficient (303.2 K, 96.7 kPa, x1 = 0): 1.39e-10 m2/s
- binary diffusion coefficient (313.2 K, 95.6 kPa, x1 = 0): 1.99e-10 m2/s
- binary diffusion coefficient (323.2 K, 97.7 kPa, x1 = 0): 2.75e-10 m2/s
- binary diffusion coefficient (333.2 K, 98.3 kPa, x1 = 0): 4.01e-10 m2/s
- binary diffusion coefficient (343.2 K, 102.9 kPa, x1 = 0): 5.96e-10 m2/s

Structure (SMILES): CCCCCCn1cc[n+](C)c1.O=S(=O)([O-])C(F)(F)F [1-hexyl-3-methylimidazolium trifluoromethanesulfonate] + CCF
- binary diffusion coefficient (303.2 K, 94.5 kPa, x2 = 0): 2.08e-10 m2/s
- binary diffusion coefficient (313.2 K, 103.8 kPa, x2 = 0): 2.75e-10 m2/s
- binary diffusion coefficient (323.2 K, 97 kPa, x2 = 0): 3.68e-10 m2/s
- binary diffusion coefficient (333.2 K, 94.4 kPa, x2 = 0): 4.76e-10 m2/s
- binary diffusion coefficient (343.2 K, 98.1 kPa, x2 = 0): 5.91e-10 m2/s

Structure (SMILES): CC(F)F [1,1-difluoroethane] + CCCCCCn1cc[n+](C)c1.F[B-](F)(F)F
- binary diffusion coefficient (303.2 K, 95.1 kPa, x1 = 0): 7.4e-11 m2/s
- binary diffusion coefficient (313.2 K, 101.6 kPa, x1 = 0): 1.07e-10 m2/s
- binary diffusion coefficient (323.2 K, 102 kPa, x1 = 0): 1.59e-10 m2/s
- binary diffusion coefficient (333.2 K, 97.8 kPa, x1 = 0): 2.07e-10 m2/s
- binary diffusion coefficient (343.2 K, 98.5 kPa, x1 = 0): 2.56e-10 m2/s

Structure (SMILES): CCCCCCn1cc[n+](C)c1.F[B-](F)(F)F [1-hexyl-3-methylimidazolium tetrafluoroborate] + FCF
- binary diffusion coefficient (303.2 K, 95.7 kPa, x2 = 0): 1.29e-10 m2/s
- binary diffusion coefficient (313.2 K, 102 kPa, x2 = 0): 1.8e-10 m2/s
- binary diffusion coefficient (323.2 K, 99.1 kPa, x2 = 0): 2.55e-10 m2/s
- binary diffusion coefficient (333.2 K, 103.5 kPa, x2 = 0): 3.57e-10 m2/s
- binary diffusion coefficient (343.2 K, 99.9 kPa, x2 = 0): 4.76e-10 m2/s
